Measurements taken from patent US20110178396A1, “Nicotinamide Derivatives” (CRC FOR BIOMEDICAL IMAGING DEVELOPMENT LTD., priority 2008, published 2011).

System: B16F0 melanoma tumour
Test: Biodistribution in B16 melanoma bearing mice
Format: in vivo, C57BL/6J mice
Conditions: C57BL/6J mice; for Organ distribution Intestine / Organ distribution Liver / Organ distribution Spleen / Organ distribution Stomach / Organ distribution Thyroid / Organ distribution Tumour: B16F0 tumour, mean ± S.D.; for Organ distribution Intestine / Organ distribution Liver / Organ distribution Spleen / Organ distribution Stomach / Organ distribution Thyroid / Organ distribution Tumour / Uptake Lung / uptake BLOOD / uptake BRAIN / uptake HEART / uptake KIDNEY / uptake LIVER / uptake TUMOUR: n = 5; for tumour standardized uptake value (SUVt) / Uptake Lung / uptake BLOOD / uptake BRAIN / uptake HEART / uptake KIDNEY / uptake LIVER / uptake TUMOUR: B16 tumour; for Uptake Lung / uptake BLOOD / uptake BRAIN / uptake HEART / uptake KIDNEY / uptake LIVER / uptake TUMOUR: mean ± SD
Procedure: Animal experiments were performed in compliance with the NHMRC Australian Code of Practice for the care and use of animals for scientific purposes. Female C57BL/6J black and BALB/c nude albino mice of 5 weeks age were obtained from the Animal Resources Centre, Western Australia. B16F0 murine melanoma cells were originally obtained from European Collection of Cell Cultures (UK) and A375 human amelanotic melanoma cells were originally obtained from American Type Culture Collection (USA). Before transplantation, B16F0 and A375 melanoma cells were maintained as a monolayer in RPMI culture medium supplemented with 10% foetal calf serum and antibiotics and passaged with trypsinisation. Early passages were frozen and stored in liquid nitrogen. Cells were passaged to P=10 and then discarded. Frozen aliquots were grown in a monolayer culture to between 80-95% confluence and for transplantation were trypsinised and washed with Ca^2+ and Mg^2+ free phosphate buffered saline (PBS). For inoculation, B16F0 melanoma cells were resuspended in Ca^2+ and Mg^2+ free PBS at 3 or 5×10^6 viable cells per ml and 0.1 ml was subcutaneously injected at the left flank of 6-7 weeks old C57BL/6J mice. Eleven days later, tumours could be palpated in >98% of inoculated animals. A375 human melanoma cells were resuspended at 1×10^7 viablecells per ml and 0.1 ml was injected subcutaneously at the left flank of 6 weeks old BALB/c nude mice and 25-26 days later tumours could be palpated with ˜60% of inoculated animals developing tumours.
Eleven days (B16F0 melanoma) and 25 days (A375 human melanoma) after tumour transplantation, the [^18F]nicotinamides (0.5-1.5 MBq, 100 μl) and [^123I]nicotinamide (0.37-0.74 MBq, 100 μl) derivatives were injected intravenously via the tail vein into mice (15-18 g). Time points of 1, 3, 6, 24, 48, 72 h after injection were chosen for determining the distribution of each compound in various organs and tissues for the iodine-123 labelled compounds and between 15 min and 6 hours (e.g. 15 min, 30 min, 1 h, 2 h, 4 h or 6 h) were chosen for the ^18F-labelled compounds. At defined times post injection, groups of mice (n=5) were weighed, sacrificed by CO2 administration followed by cervical dislocation and dissected. Selected organs were weighed and their radioactivity measured with a γ-counter. The remaining activity in the carcass was also determined in order to obtain the total activity in the mouse at defined time points. The fraction of injected activity (% ID) in the organ was calculated by comparison with suitable dilutions of the injected dose. Then, the radioactivity concentration in the organ (% ID/g) was found by dividing the % ID for each organ by the weight of the organ.

CCN(CC)CCNC(=O)c1ccc(I)nc1 [[^123I]14, N-(2-(Diethylamino)ethyl)-6-iodonicotinamide]
Organ distribution Intestine (1 h): 10 ± 1 % ID/organ
Organ distribution Liver (1 h): 2.7 ± 0.7 % ID/organ
Organ distribution Spleen (1 h): 0.31 ± 0.07 % ID/organ
Organ distribution Stomach (1 h): 9 ± 1 % ID/organ
Organ distribution Thyroid (1 h): 1.2 ± 0.7 % ID/organ
Organ distribution Tumour (1 h): 1.8 ± 0.4 % ID/organ
Organ distribution Intestine (6 h): 5 ± 1 % ID/organ
Organ distribution Liver (6 h): 1.3 ± 0.4 % ID/organ
Organ distribution Spleen (6 h): 0.17 ± 0.05 % ID/organ
Organ distribution Stomach (6 h): 7 ± 2 % ID/organ
Organ distribution Thyroid (6 h): 3.3 ± 0.8 % ID/organ
Organ distribution Tumour (6 h): 1.4 ± 0.8 % ID/organ
Organ distribution Intestine (24 h): 0.35 ± 0.03 % ID/organ
Organ distribution Liver (24 h): 0.19 ± 0.04 % ID/organ
Organ distribution Spleen (24 h): 0.01 ± 0.00 % ID/organ
Organ distribution Stomach (24 h): 0.4 ± 0.1 % ID/organ
Organ distribution Thyroid (24 h): 6.5 ± 2.8 % ID/organ
Organ distribution Tumour (24 h): 0.11 ± 0.06 % ID/organ
tumour standardized uptake value (SUVt) (1 h): 1.2 ± 0.1
Uptake Lung (1 h): 4.8 ± 0.4 % ID/g
uptake BLOOD (1 h): 6.9 ± 0.6 % ID/g
uptake BRAIN (1 h): 0.36 ± 0.05 % ID/g
uptake HEART (1 h): 2.3 ± 0.2 % ID/g
uptake KIDNEY (1 h): 4.2 ± 0.6 % ID/g
uptake LIVER (1 h): 3.1 ± 0.6 % ID/g
uptake TUMOUR (1 h): 3.8 ± 0.2 % ID/g
tumour standardized uptake value (SUVt) (6 h): 1.0 ± 0.1
Uptake Lung (6 h): 2.6 ± 0.8 % ID/g
uptake BLOOD (6 h): 3.6 ± 1.0 % ID/g
uptake BRAIN (6 h): 0.14 ± 0.04 % ID/g
uptake HEART (6 h): 1.1 ± 0.3 % ID/g
uptake KIDNEY (6 h): 2.4 ± 0.7 % ID/g
uptake LIVER (6 h): 1.4 ± 0.5 % ID/g
uptake TUMOUR (6 h): 2.3 ± 0.5 % ID/g
tumour standardized uptake value (SUVt) (24 h): 0.5 ± 0.2
Uptake Lung (24 h): 0.2 ± 0.1 % ID/g
uptake BLOOD (24 h): 0.25 ± 0.12 % ID/g
uptake BRAIN (24 h): 0.02 % ID/g
uptake HEART (24 h): 0.10 ± 0.05 % ID/g
uptake KIDNEY (24 h): 0.18 ± 0.05 % ID/g
uptake LIVER (24 h): 0.20 ± 0.04 % ID/g
uptake TUMOUR (24 h): 0.26 ± 0.14 % ID/g

CCCN(CCC)CCCCNC(=O)c1cncc(I)c1 [[^123I]17, N-(4-(Dipropylamino)butyl)-5-iodonicotinamide]
Organ distribution Intestine (1 h): 15 ± 1 % ID/organ
Organ distribution Liver (1 h): 2.0 ± 0.1 % ID/organ
Organ distribution Spleen (1 h): 0.54 ± 0.09 % ID/organ
Organ distribution Stomach (1 h): 6 ± 1 % ID/organ
Organ distribution Thyroid (1 h): 1.3 ± 0.4 % ID/organ
Organ distribution Tumour (1 h): 0.64 ± 0.20 % ID/organ
Organ distribution Intestine (6 h): 9 ± 1 % ID/organ
Organ distribution Liver (6 h): 0.95 ± 0.15 % ID/organ
Organ distribution Spleen (6 h): 0.13 ± 0.02 % ID/organ
Organ distribution Stomach (6 h): 6 ± 2 % ID/organ
Organ distribution Thyroid (6 h): 4.0 ± 0.9 % ID/organ
Organ distribution Tumour (6 h): 1.0 ± 0.2 % ID/organ
Organ distribution Intestine (24 h): 0.40 ± 0.07 % ID/organ
Organ distribution Liver (24 h): 0.14 ± 0.03 % ID/organ
Organ distribution Spleen (24 h): 0.02 ± 0.03 % ID/organ
Organ distribution Stomach (24 h): 0.17 ± 0.04 % ID/organ
Organ distribution Thyroid (24 h): 6.0 ± 1.6 % ID/organ
Organ distribution Tumour (24 h): 0.62 ± 0.22 % ID/organ
tumour standardized uptake value (SUVt) (1 h): 1.8 ± 0.1
Uptake Lung (1 h): 7.5 ± 0.2 % ID/g
uptake BLOOD (1 h): 3.1 ± 0.1 % ID/g
uptake BRAIN (1 h): 0.42 ± 0.02 % ID/g
uptake HEART (1 h): 1.9 ± 0.1 % ID/g
uptake KIDNEY (1 h): 3.5 ± 0.2 % ID/g
uptake LIVER (1 h): 2.1 ± 0.2 % ID/g
uptake TUMOUR (1 h): 5.6 ± 0.3 % ID/g
tumour standardized uptake value (SUVt) (6 h): 2.2 ± 0.4
Uptake Lung (6 h): 2.2 ± 0.2 % ID/g
uptake BLOOD (6 h): 2.4 ± 0.3 % ID/g
uptake BRAIN (6 h): 0.16 ± 0.03 % ID/g
uptake HEART (6 h): 0.8 ± 0.1 % ID/g
uptake KIDNEY (6 h): 1.7 ± 0.3 % ID/g
uptake LIVER (6 h): 1.1 ± 0.1 % ID/g
uptake TUMOUR (6 h): 5.0 ± 0.7 % ID/g
tumour standardized uptake value (SUVt) (24 h): 5.1 ± 1.3
Uptake Lung (24 h): 0.15 ± 0.3 % ID/g
uptake BLOOD (24 h): 0.13 ± 0.03 % ID/g
uptake BRAIN (24 h): 0.02 % ID/g
uptake HEART (24 h): 0.09 ± 0.02 % ID/g
uptake KIDNEY (24 h): 0.12 ± 0.03 % ID/g
uptake LIVER (24 h): 0.15 ± 0.03 % ID/g
uptake TUMOUR (24 h): 2.3 ± 0.4 % ID/g
